Experimental data: patent US12570642B2, “GLP-IR modulating compounds” (Gilead Sciences, Inc., priority 2021, dated 2026)

Target: GLP-1R (Homo sapiens, UniProt P43220)
Test: GLP-1R Activation - cAMP Assay
Assay type: cell-based
Settings: cAMP increase in CHO cells stably expressing GLP-1R; each compound run on one of the two cAMP assays (Assay 1 or Assay 2, not specified)
Method in brief: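 CHO cells stably expressing GLP-1R, plated at 1,000 cells/well overnight, then equilibrated 1 h in HBSS with 20 mM Hepes and 0.1% BSA. Agonist added as 10-point dose response for 30 min at 37 °C. cAMP measured by HTRF (Cisbio Gs Dynamic kit); EC50 from sigmoidal fit.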

Chain of GLP-1R (P43220 24-463): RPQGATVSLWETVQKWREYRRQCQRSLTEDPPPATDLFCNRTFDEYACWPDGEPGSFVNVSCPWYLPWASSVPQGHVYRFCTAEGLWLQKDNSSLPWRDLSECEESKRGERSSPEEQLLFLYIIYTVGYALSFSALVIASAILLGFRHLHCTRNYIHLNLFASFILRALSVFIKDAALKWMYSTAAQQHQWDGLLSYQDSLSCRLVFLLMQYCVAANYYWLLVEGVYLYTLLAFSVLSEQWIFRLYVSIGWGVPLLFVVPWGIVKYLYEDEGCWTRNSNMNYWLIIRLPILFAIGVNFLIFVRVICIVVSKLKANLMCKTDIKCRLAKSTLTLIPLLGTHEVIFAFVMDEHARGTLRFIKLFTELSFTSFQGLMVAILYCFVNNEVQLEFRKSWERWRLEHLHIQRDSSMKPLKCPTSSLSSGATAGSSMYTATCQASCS

Structure (SMILES)	EC50
CC1(C)COC[C@H]1n1c(Cc2cc(F)c(-c3cccc(OCc4ccc(C#N)cc4F)n3)cc2F)nc2cc(F)c(C(=O)O)cc21 [Example 419, (S)-2-(4-(6-((4-cyano-2-fluorobenzyl)oxy)pyridin-2-yl)-2,5-difluorobenzyl)-1-(4,4-dimethyltetrahydrofuran-3-yl)-5-fluoro-1H-benzo[d]imidazole-6-carboxylic acid]	0.112 nM
CC1(C)COC[C@H]1n1c(Cc2cc(F)c(-c3cccc(OCc4ccc(F)cc4F)n3)cc2F)nc2ccc(C(=O)O)cc21 [Example 466, (S)-2-(4-(6-((2,4-difluorobenzyl)oxy)pyridin-2-yl)-2,5-difluorobenzyl)-1-(4,4-dimethyltetrahydrofuran-3-yl)-1H-benzo[d]imidazole-6-carboxylic acid]	0.124 nM
CC1(C)COC[C@H]1n1c(Cc2c(F)cc(-c3ccc(F)c(OCc4ccc(C#N)cc4F)n3)c(F)c2F)nc2ccc(C(=O)O)cc21 [Example 482, (S)-2-(4-(6-((4-cyano-2-fluorobenzyl)oxy)-5-fluoropyridin-2-yl)-2,3,6-trifluorobenzyl)-1-(4,4-dimethyltetrahydrofuran-3-yl)-1H-benzo[d]imidazole-6-carboxylic acid]	0.011 nM
O=C(O)c1cc(F)c2nc(Cc3cc(F)c(-c4ncc(F)c(OCc5ccc(C(F)(F)F)cc5F)n4)cc3F)n(C[C@@H]3CCO3)c2c1 [Example 148, (S)-2-(2,5-difluoro-4-(5-fluoro-4-((2-fluoro-4-(trifluoromethyl)benzyl)oxy)pyrimidin-2-yl)benzyl)-4-fluoro-1-(oxetan-2-ylmethyl)-1H-benzo[d]imidazole-6-carboxylic Acid]	0.174 nM
COCCn1c(Cc2cc(F)c(-c3cccc(OCc4ccc(-n5ccnn5)nc4)n3)cc2Cl)nc2c(F)cc(C(=O)O)cc21 [Example 350, 2-(4-(6-((6-(1H-1,2,3-triazol-1-yl)pyridin-3-yl)methoxy)pyridin-2-yl)-2-chloro-5-fluorobenzyl)-4-fluoro-1-(2-methoxyethyl)-1H-benzo[d]imidazole-6-carboxylic acid]	0.171 nM
COCCn1c(Cc2c(F)cc(-c3ccc(F)c(OCc4cnc(-n5ccnn5)cc4Cl)n3)c(F)c2F)nc2ccc(C(=O)O)cc21 [Example 392, 2-(4-(6-((4-chloro-6-(1H-1,2,3-triazol-1-yl)pyridin-3-yl)methoxy)-5-fluoropyridin-2-yl)-2,3,6-trifluorobenzyl)-1-(2-methoxyethyl)-1H-benzo[d]imidazole-6-carboxylic acid]	0.036 nM
CC1(C)COC[C@H]1n1c(Cc2ccc(-c3ccnc(OCc4ccc(C#N)cc4F)n3)cc2F)nc2c(F)cc(C(=O)O)cc21 [Example 298, (S)-2-(4-(2-((4-cyano-2-fluorobenzyl)oxy)pyrimidin-4-yl)-2-fluorobenzyl)-1-(4,4-dimethyltetrahydrofuran-3-yl)-4-fluoro-1H-benzo[d]imidazole-6-carboxylic acid]	0.663 nM
C[C@H]1COC[C@H]1n1c(Cc2cc(F)c(-c3cccc(OCc4ccc(C#N)cc4F)n3)cc2F)nc2ccc(C(=O)O)cc21 [Example 494, 2-(4-(6-((4-cyano-2-fluorobenzyl)oxy)pyridin-2-yl)-2,5-difluorobenzyl)-1-((3S,4R)-4-methyltetrahydrofuran-3-yl)-1H-benzo[d]imidazole-6-carboxylic acid]	0.051 nM
Cc1ccc(COc2cccc(-c3cc(F)c(Cc4nc5ccc(C(=O)O)cc5n4[C@@H]4COCC4(C)C)cc3F)n2)cc1Cl [Example 452, (S)-2-(4-(6-((3-chloro-4-methylbenzyl)oxy)pyridin-2-yl)-2,5-difluorobenzyl)-1-(4,4-dimethyltetrahydrofuran-3-yl)-1H-benzo[d]imidazole-6-carboxylic acid]	0.564 nM
Cn1ncc(-c2ccc(COc3cccc(-c4cc(F)c(Cc5nc6ccc(C(=O)O)cc6n5[C@@H]5COCC5(C)C)cc4F)n3)c(F)c2)n1 [Example 553, (S)-2-(2,5-difluoro-4-(6-((2-fluoro-4-(2-methyl-2H-1,2,3-triazol-4-yl)benzyl)oxy)pyridin-2-yl)benzyl)-1-(4,4-dimethyltetrahydrofuran-3-yl)-1H-benzo[d]imidazole-6-carboxylic acid]	0.132 nM
COCCn1c(Cc2cc(F)c(-c3ccc(F)c(OCc4cnc(-n5ccnn5)cc4Cl)n3)cc2F)nc2ccc(C(=O)O)cc21 [Example 215, 2-(4-(6-((4-chloro-6-(1H-1,2,3-triazol-1-yl)pyridin-3-yl)methoxy)-5-fluoropyridin-2-yl)-2,5-difluorobenzyl)-1-(2-methoxyethyl)-1H-benzo[d]imidazole-6-carboxylic acid]	0.21 nM
CC1(C)COC[C@H]1n1c(Cc2cc(F)c(-c3cccc(OCc4ccc(C(F)F)nc4)n3)cc2F)nc2ccc(C(=O)O)cc21 [Example 420, (S)-2-(4-(6-((6-(difluoromethyl)pyridin-3-yl)methoxy)pyridin-2-yl)-2,5-difluorobenzyl)-1-(4,4-dimethyltetrahydrofuran-3-yl)-1H-benzo[d]imidazole-6-carboxylic acid]	0.413 nM
COCCn1c(Cc2c(F)cc(-c3cccc(OCc4ccc(C#N)cc4)n3)c(F)c2F)nc2ccc(C(=O)O)cc21 [Example 281, 2-(4-(6-((4-cyanobenzyl)oxy)pyridin-2-yl)-2,3,6-trifluorobenzyl)-1-(2-methoxyethyl)-1H-benzo[d]imidazole-6-carboxylic acid]	0.655 nM
N#Cc1ccc(COc2cccc(-c3cc(F)c(Cc4nc5ccc(C(=O)O)cc5n4C4COCC45CC5)cc3F)n2)c(F)c1 (stereo not drawn) [Example 268, 2-(4-(6-((4-cyano-2-fluorobenzyl)oxy)pyridin-2-yl)-2,5-difluorobenzyl)-1-(5-oxaspiro[2.4]heptan-7-yl)-1H-benzo[d]imidazole-6-carboxylic acid]	0.175 nM
CC1(C)COC[C@H]1n1c(Cc2c(F)cc(-c3cccc(OCc4ccc(C#N)cc4F)n3)c(F)c2F)nc2c(F)cc(C(=O)O)cc21 [Example 124]	0.027 nM
Cn1nnc2cc(COc3cccc(-c4cc(F)c(Cc5nc6ccc(C(=O)O)cc6n5[C@@H]5COCC5(C)C)cc4F)n3)ccc21 [Example 512, (S)-2-(2,5-difluoro-4-(6-((1-methyl-1H-benzo[d][1,2,3]triazol-5-yl)methoxy)pyridin-2-yl)benzyl)-1-(4,4-dimethyltetrahydrofuran-3-yl)-1H-benzo[d]imidazole-6-carboxylic acid]	0.515 nM
CC1(C)COC[C@H]1n1c(Cc2c(F)cc(-c3cccc(OCc4ccc(C#N)cc4F)n3)c(F)c2F)nc2ccc(C(=O)O)cc21 [Example 120, (S)-2-(4-(6-((4-cyano-2-fluorobenzyl)oxy)pyridin-2-yl)-2,3,6-trifluorobenzyl)-1-(4,4-dimethyltetrahydrofuran-3-yl)-benzimidazole-6-carboxylic Acid]	0.101 nM
Cc1ncc(-c2ccc(COc3cccc(-c4cc(F)c(Cc5nc6ccc(C(=O)O)cc6n5[C@@H]5COCC5(C)C)cc4F)n3)c(F)c2)s1 [Example 444, (S)-2-(2,5-difluoro-4-(6-((2-fluoro-4-(2-methylthiazol-5-yl)benzyl)oxy)pyridin-2-yl)benzyl)-1-(4,4-dimethyltetrahydrofuran-3-yl)-1H-benzo[d]imidazole-6-carboxylic acid]	0.365 nM
COCCn1c(C(CO)c2cc(F)c(-c3cccc(OCc4ccc(C#N)cc4F)n3)cc2F)nc2ccc(C(=O)O)cc21 (stereo not drawn) [Example 54]	31.6 nM
N#Cc1ccc(COc2cccc(-c3cc(F)c(Cc4nc5ccc(C(=O)O)cc5n4[C@@H]4COCC45CC5)cc3F)n2)c(F)c1 (single isomer, unassigned) [Example 260]	0.411 nM
N#Cc1ccc(COc2cccc(-c3cc(F)c(Cc4nc5ccc(C(=O)O)cc5n4[C@H]4COC[C@H]4C(F)F)cc3F)n2)c(F)c1 (single isomer, unassigned) [Example 234]	0.448 nM
N#Cc1ccc(COc2cccc(-c3cc(F)c(Cc4nc5ccc(C(=O)O)cc5n4[C@H]4COCC45CC5)cc3F)n2)c(F)c1 (single isomer, unassigned) [Example 259]	0.578 nM
N#Cc1ccc(COc2cccc(-c3cc(F)c(Cc4nc5ccc(C(=O)O)cc5n4[C@@H]4COC[C@@H]4C(F)F)cc3F)n2)c(F)c1 (single isomer, unassigned) [Example 233]	3.11 nM
CC(C)O[C@H]1COC[C@H]1n1c(Cc2cc(F)c(-c3cccc(OCc4ccc(Cl)cc4F)n3)cc2F)nc2ccc(C(=O)O)cc21 [Example 570, 2-(4-(6-((4-chloro-2-fluorobenzyl)oxy)pyridin-2-yl)-2,5-difluorobenzyl)-1-((3R,4R)-4-isopropoxytetrahydrofuran-3-yl)-1H-benzo[d]imidazole-6-carboxylic acid]	0.955 nM
CC1(C)COC[C@H]1n1c(Cc2c(F)cc(-c3cccc(OCc4cnc(-n5ccnn5)cc4Cl)n3)c(F)c2F)nc2ccc(C(=O)O)cc21 [Example 157, (S)-2-(4-(6-((4-chloro-6-(1H-1,2,3-triazol-1-yl)pyridin-3-yl)methoxy)pyridin-2-yl)-2,3,6-trifluorobenzyl)-1-(4,4-dimethyltetrahydrofuran-3-yl)-1H-benzo[d]imidazole-6-carboxylic Acid]	0.081 nM
CC1(C)COC[C@H]1n1c(Cc2c(F)cc(-c3ccc(F)c(OCc4ccc(C#N)cc4)n3)c(F)c2F)nc2c(F)cc(C(=O)O)cc21 [Example 316, (S)-2-(4-(6-((4-cyanobenzyl)oxy)-5-fluoropyridin-2-yl)-2,3,6-trifluorobenzyl)-1-(4,4-dimethyltetrahydrofuran-3-yl)-4-fluoro-1H-benzo[d]imidazole-6-carboxylic acid]	0.14 nM
COCCn1c(Cc2cc(F)c(-c3cccc(OCc4ccc5c(c4)CN(S(C)(=O)=O)C5)n3)cc2F)nc2c(F)cc(C(=O)O)cc21 [Example 514, 2-(2,5-difluoro-4-(6-((2-(methylsulfonyl)isoindolin-5-yl)methoxy)pyridin-2-yl)benzyl)-4-fluoro-1-(2-methoxyethyl)-1H-benzo[d]imidazole-6-carboxylic acid]	0.152 nM
